From PubChem BioAssay (NCI)
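These data come from cells grown in 96-well plates and exposed to compound for 48 hours at five concentrations. Here, GI50 denotes the concentration required for 50% inhibition of growth. The concentration for full growth arrest is given as TGI.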

Tested on: MDA-MB-468 breast
Experiment: NCI tumour cell line growth inhibition, 48 h

| SMILES | GI50 [nM] | TGI [µM] |
| --- | --- | --- |
| N#Cc1cccc(C2C3=C(COC3=O)N(CCO)c3cc4c(cc32)CCC4)c1 (configuration not stated) | 115 |  |
| CCOc1cc2c(cc1O)CC[C@@H]1[C@@H]2CC[C@]2(C)[C@@H](O)CC[C@@H]12 | 4960 | 31.8 |
| COc1cc(OC)c(/C=C/C(=O)c2c(N)cc(OC)cc2OC)c(OC)c1 | 322 | 7.26 |
| COC(=O)C1=Nc2ccc(F)cc2/C1=C/c1sc(=S)[nH]c1O | 354 | 2.95 |
| O=C(/C=C/c1cccc(Oc2ccc(Cl)cc2)c1)c1ccccc1 | 101000 | 338 |
| CCN(CC)C(=O)CCCCCn1c2ccccc2c2c3c(c4c5ccccc5[nH]c4c21)C(=O)N(O)C3=O | 5790 | > 100 |
| CCN(CC)CCS(=O)(=O)CCNc1ccnc2cc(Cl)ccc12 | 711 | 1.91 |
| CCc1c(C#N)c(SC(C(N)=O)c2ccccc2)nc(N2CCC(N)CC2)c1C#N (configuration not stated) | 3530 | 16.4 |
| CN(C)c1ccc2c(c1)OC(N)=C(C#N)C2c1ccc2c(c1)CCCN2C (configuration not stated) | 1620 | 42.5 |
| Cc1ccc(-c2nc(C(Cl)Cl)nc3cc(C)nn23)cc1 | 259 | 0.957 |
| CN(c1ccc(NC(=O)NCCN2CCOCC2)cc1)c1ccnc(Nc2ccc(CS(C)(=O)=O)cc2)n1 | 8210 | > 25 |
| N=C(N)c1ccc(OCCCCCOc2ccc(C(=N)N)cc2)cc1 | 466 | 5.83 |
| O=C(Nc1nc2c(s1)CCc1c-2c(Br)n(Cc2ccccc2)c1Br)c1ccccc1 | 8280 | > 100 |
| CC/C(=C(/c1ccc(/C=C/C(=O)O)cc1)c1ccc2[nH]ncc2c1)c1ccc(F)cc1Cl | 15100 | 42.8 |
| COc1cc(/C=N/Nc2ccnc3cc(Cl)ccc23)cc(OC)c1O | 1650 | 3.28 |
| CCN(CC)CCCNc1c2ccc(Cl)cc2nc2ccc(OC)cc12 | 71.1 | 2.71 |
| Cc1nn2c(-c3nc4cc(Cl)c(Cl)cc4[nH]3)c(-c3ccc(F)cc3)nc2s1 | > 29100 | > 100 |
| CC(C)C/C(=N\NC(=O)c1ccncc1)c1cc(Cl)ccc1O | 288 | 1.97 |
| Cc1ccc(NC2=CC(=O)C(=O)c3ccccc32)c(C)c1 | 2560 | 8.61 |
| Nc1n[nH]c2ccc([C@@H]3Nc4c(F)cc5[nH]ncc5c4[C@H]4C5CCC(C5)[C@@H]34)cc12 (some centres not stated) | 116 | 0.621 |
| O=C1C2C(C(=O)N1CC[Se][Se]CCN1C(=O)C3C(C1=O)[C@H]1C=C[C@@H]3C1)[C@H]1C=C[C@@H]2C1 (some centres not stated) | 324 | 1.32 |
| CCN(CC)Cc1cc(Nc2cc(C(F)(F)F)c(C#N)c3nc4ccccc4n23)ccc1O | 228 | 3.69 |

| SMILES | GI50 [nM] | TGI [µM] |
| --- | --- | --- |
| CCOC(=O)c1cc2cc(OCc3ccccc3)ccc2[nH]1 | > 100000 | > 100 |
| CCN(CC)C(=S)SSCCO | 15000 | 28.9 |
| Oc1ccc(-c2[nH]c3ccccc3c2-c2nc3ccccc3o2)cc1 | 1360 | 5.98 |
| O=S(=O)(NCCCNc1nccc(-c2c(-c3cccc(F)c3)nc3occn23)n1)c1cccc2ccccc12 | 4860 | > 100 |
| Cc1n(Cc2ccc3ccccc3n2)cc[n+]1Cc1ccc2ccccc2c1 | 270 | 1.58 |
| Oc1c(I)cc(Cl)c2cccnc12 | 2050 | 5.13 |
| OC(c1cc(-c2ccc(Cl)cc2)nc2c(Cl)cccc12)C1CCCCN1 (configuration not stated) | 1740 | 3.26 |
| CC1(C)N=C(N)N=C(N)N1c1ccc(OCCCCNC(=O)Nc2cccc(S(=O)(=O)F)c2)c(Cl)c1 | 3470 | > 100 |
| CCc1ccc(C2=NN(c3ccc(S(C)(=O)=O)cc3)C(=O)CC2)cc1 | 4430 | 43.7 |
| Cc1ccc(C(=O)N2C/C(=C/c3ccccc3)C(=O)/C(=C/c3ccccc3)C2)cc1 | 2230 | 10.7 |
| Cc1ccc(O)cc1Nc1ccnc2cc(-c3ccccn3)ccc12 | 736 | 3.57 |
| C=C(C)[C@@H]1CC[C@]2(C(=O)n3ccnc3)CC[C@]3(C)[C@H](CC[C@@H]4[C@@]5(C)CCCNC(C)(C)[C@@H]5CC[C@]43C)[C@@H]12 | 1900 | 3.53 |
| Cc1cc(-c2ccco2)cc(C)c1/C=C/c1cncc(-c2nn[nH]n2)c1 | > 25000 | > 25 |
| CN(C)CCS(=O)(=O)Nc1cc(-c2ccc3ncnc(Nc4ccc(F)c(Cl)c4)c3c2)cnc1Cl | 133 | 0.449 |
| COc1ncc2cc1NS(=O)(=O)c1cccc(c1)C(=O)NCC1=CC=C(S1)c1ncnc3c1SC2=C3C | 72 | 0.234 |
| Nc1c(C(=O)Nc2ccccn2)sc2nc3c(cc12)CCCCCC3 | 435 | 7.13 |
| CS(=O)(=O)c1ccc2c(c1)c1c(n2C(=O)c2ccc(Cl)cc2)CCCC1 | 2090 | > 100 |
| CCN(CCNc1ccc(C)c2sc3cc(Cl)ccc3c(=O)c12)CC(C)(C)O | 3490 | 10.4 |
| Nc1ccn([C@@H]2S[C@H](CO)[C@@H](O)[C@@H]2F)c(=O)n1 | 3250 | > 88.6 |
| C=CC[PH+](c1ccccc1)c1ccccc1.C=CC[PH+](c1ccccc1)c1ccccc1.[Pt+2].[S-]c1ncccn1.[S-]c1ncccn1 | 3060 | 13.9 |
| Cc1ccccc1CNc1c2ccccc2nc2ccccc12 | 1880 | 4.89 |
| O=C(Nc1cccc(-n2cc(-c3ccncc3)c(-c3ccc(O)c(Cl)c3)n2)c1)Nc1ccc(Cl)c(Cl)c1 | 1960 | 6.65 |
